Assay results reported in article PMC8790579, “Activity-Based Protein Profiling for the Identification of Novel Carbohydrate-Active Enzymes Involved in Xylan Degradation in the Hyperthermophilic Euryarchaeon Thermococcus sp. Strain 2319x1E” (Frontiers in Microbiology, 2022).

Assays:
EGIDFPOO_00532 = tested on: T1, EGIDFPOO_00532; assay: nitrophenol release, absorbance; type: biochemical, Thermococcus sp. 2319x1E; settings: pH 8.0, 100°C; refolding buffer with 2 M urea, 10% sucrose
T1 construct: N-terminal 6xHis-tag, pET-28b(+) NheI/XhoI, E. coli Rosetta; primers encode N-term MLVFPDSFL and C-term KYGLPEL

EGIDFPOO_00674 = tested on: T2, EGIDFPOO_00674; assay: nitrophenol release, absorbance; type: biochemical, Thermococcus sp. 2319x1E; settings: pH 8.0 (50 mM Tris-HCl), 100°C
T2 construct: C-terminal 6xHis-tag, pET-28b(+) NcoI/EcoRI, E. coli Rosetta; Ni-IDA purified; primers encode N-term MGYQKFGYHFHA and C-term NGASIGPGF before HHHHHH; GH57 domain 52-300, predicted catalytic E153/D253

| SMILES | Km (EGIDFPOO_00532) [mM] | Km (EGIDFPOO_00674) [mM] |
| --- | --- | --- |
| O=[N+]([O-])c1ccccc1O[C@@H]1O[C@H](CO)[C@H](O)[C@H](O)[C@H]1O [ONPG] | 6.23 | – |
| CC(=O)Oc1ccc([N+](=O)[O-])cc1 [PNPA] | – | 2.57 |
| O=[N+]([O-])c1ccc(O[C@@H]2O[C@H](CO)[C@@H](O)[C@H](O)[C@H]2O)cc1 [PNPG] | 0.18 | – |
| O=[N+]([O-])c1ccc(O[C@@H]2OC[C@@H](O)[C@H](O)[C@H]2O)cc1 [PNPX] | 4.38 | – |
